Tests used:
Cathepsin D (Cat D) = Cathepsin D (Cat D) (Homo sapiens (Human), UniProt P07339); test: In vitro enzymatic Cathepsin D (Cat D) FRET assay; format: biochemical; conditions: read-out: CatD IC50
BACE = BACE (Homo sapiens (Human), UniProt P56817); test: In vitro BACE cell-based assay (Aβ40 in conditioned medium, sandwich ELISA)
[1] = biological target: Beta Secretase enzyme (BACE) (Homo sapiens (Human), UniProt P56817); test: In vitro enzymatic BACE FRET assay; format: biochemical; conditions: read-out: BACE1 Enzyme assay IC50
Beta Secretase enzyme (BACE), sequence (P56817 46-501): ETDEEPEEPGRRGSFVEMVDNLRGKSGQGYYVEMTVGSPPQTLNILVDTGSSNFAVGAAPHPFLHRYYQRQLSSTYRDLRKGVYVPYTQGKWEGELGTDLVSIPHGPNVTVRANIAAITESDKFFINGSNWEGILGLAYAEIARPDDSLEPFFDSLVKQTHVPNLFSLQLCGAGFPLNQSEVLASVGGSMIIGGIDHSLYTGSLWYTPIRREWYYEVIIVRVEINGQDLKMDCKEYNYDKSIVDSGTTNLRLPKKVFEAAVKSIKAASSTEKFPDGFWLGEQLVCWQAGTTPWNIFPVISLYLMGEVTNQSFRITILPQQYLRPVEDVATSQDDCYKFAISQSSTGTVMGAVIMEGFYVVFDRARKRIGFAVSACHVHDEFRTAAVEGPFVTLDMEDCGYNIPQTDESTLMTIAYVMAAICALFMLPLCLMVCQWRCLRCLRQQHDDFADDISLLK

BACE, sequence (P56817 46-501, species assumed): as the sequence (P56817 46-501) above
Cathepsin D (Cat D), sequence (P07339 65-412, species assumed): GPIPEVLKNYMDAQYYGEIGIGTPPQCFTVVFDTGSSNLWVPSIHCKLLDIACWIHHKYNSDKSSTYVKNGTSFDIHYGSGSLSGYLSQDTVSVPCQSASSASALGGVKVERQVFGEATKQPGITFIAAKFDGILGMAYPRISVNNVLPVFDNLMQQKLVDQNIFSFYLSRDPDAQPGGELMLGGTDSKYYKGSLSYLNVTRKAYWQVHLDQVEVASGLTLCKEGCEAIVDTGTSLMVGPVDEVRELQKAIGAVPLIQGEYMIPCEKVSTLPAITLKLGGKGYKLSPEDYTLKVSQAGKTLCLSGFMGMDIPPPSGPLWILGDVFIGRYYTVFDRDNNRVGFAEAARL

Row | IC50 (Cathepsin D (Cat D)) [µM] | IC50 (BACE) [µM] | IC50 [1] [µM] | Compound
1 | 117 | 2.6 | 20.1 | NC1=N[C@@](c2cc(NC(=O)C3CC(=O)C3)ccc2F)(C(F)F)[C@H]2C[C@H]2O1 [Example 258, N-(3-((1R,5S,6R)-3-amino-5-(difluoromethyl)-2-oxa-4-azabicyclo[4.1.0]hept-3-en-5-yl)-4-fluorophenyl)-3-oxocyclobutane-carboxamide]
2 | 1340 | 4.62 | > 40 | COc1cnc(C(=O)Nc2cc(F)c(F)c([C@]3(CF)N=C(N)O[C@H]4C[C@H]43)c2)cn1 [Example 144, N-(3-((1S,5R,6S)-3-amino-5-(fluoromethyl)-2-oxa-4-azabicyclo[4.1.0]hept-3-en-5-yl)-4,5-difluorophenyl)-5-methoxypyrazine-2-carboxamide]
3 | 655 | > 15.6 | > 40 | CSc1c(F)cc(NC(=O)c2ccc(Cl)cn2)cc1[C@@]1(CF)N=C(N)O[C@@H]2C[C@@H]21 (racemic) [Example 141, N-(3-(((1S,R),(5S,R),(6R,S))-3-amino-5-(fluoromethyl)-2-oxa-4-azabicyclo[4.1.0]hept-3-en-5-yl)-5-fluoro-4-(methylthio)phenyl)-5-chloropicolinamide]
4 | 445 | 0.56 | 0.0867 | NC1=N[C@@](c2cc(NC(=O)c3cnc(OCc4cncs4)cn3)ccc2F)(C(F)F)[C@H]2C[C@H]2O1 [Example 170, N-(3-((1R,5S,6R)-3-amino-5-(difluoromethyl)-2-oxa-4-azabicyclo[4.1.0]hept-3-en-5-yl)-4-fluorophenyl)-5-(thiazol-5-ylmethoxy)pyrazine-2-carboxamide]
5 | 4250 | 0.296 | 0.104 | NC1=N[C@@](c2cc(NC(=O)c3ccc(OCC(F)(F)F)cn3)ccc2F)(C(F)F)[C@H]2C[C@H]2O1 [Example 236, N-(3-((1R,5S,6R)-3-amino-5-(difluoromethyl)-2-oxa-4-azabicyclo[4.1.0]hept-3-en-5-yl)-4-fluorophenyl)-5-(2,2,2-trifluoroethoxy) picolinamide]
6 | 1160 | 0.776 | 0.817 | Cc1cnc(C(=O)Nc2ccc(F)c([C@@]3(C(F)F)N=C(N)O[C@@H]4C[C@@H]43)c2)cn1 [Example 266, N-(3-((1R,5S,6R)-3-amino-5-(difluoromethyl)-2-oxa-4-azabicyclo[4.1.0]hept-3-en-5-yl)-4-fluorophenyl)-5-methylpyrazine-2-carboxamide]
7 | 703 | 0.009 | 0.0324 | Cc1cc(C#N)cnc1C(=O)Nc1ccc(F)c([C@@]2(CF)N=C(N)O[C@@H]3C[C@@H]32)c1 [Example 196, N-(3-((1R,5S,6R)-3-amino-5-(fluoromethyl)-2-oxa-4-azabicyclo[4.1.0]hept-3-en-5-yl)-4-fluorophenyl)-5-cyano-3-methylpicolinamide]
8 | 1620 | 2.1 | 39.3 | NC1=N[C@](CF)(c2nc(NC(=O)c3ccc(Cl)cn3)ccc2F)[C@H]2C[C@H]2O1 (stereo in doubt) [Example 105, N-(6-((1R,5S,6R)-3-amino-5-(fluoromethyl)-2-oxa-4-azabicyclo[4.1.0]hept-3-en-5-yl)-5-fluoropyridin-2-yl)-5-chloropicolinamide]
9 | 1090 | 0.0208 | 0.0706 | COc1cc(C#N)cnc1C(=O)Nc1cc(C)c(F)c([C@@]2(C(F)F)N=C(N)O[C@@H]3C[C@@H]32)c1 [Example 399, N-(3-((1R,5S,6R)-3-amino-5-(difluoromethyl)-2-oxa-4-azabicyclo[4.1.0]hept-3-en-5-yl)-4-fluoro-5-methylphenyl)-5-cyano-3-methoxypicolinamide]
10 | 333 | 0.455 | 2.25 | CC#CCOc1cnc(C(=O)Nc2ccc(F)c([C@]3(C)N=C(N)O[C@H]4C[C@H]43)c2)c(C)c1 [Example 57, N-(3-((1S,5R,6S)-3-amino-5-methyl-2-oxa-4-azabicyclo[4.1.0]hept-3-en-5-yl)-4-fluorophenyl)-5-(but-2-yn-1-yloxy)-3-methylpicolinamide]
11 | > 14.8 | 0.0596 | 0.283 | Cc1cc(C(F)F)cnc1C(=O)Nc1cnc(F)c([C@@]2(CF)N=C(N)O[C@@H]3C[C@@H]32)c1 [Example 234, N-(5-((1R,5S,6R)-3-amino-5-(fluoromethyl)-2-oxa-4-azabicyclo[4.1.0]hept-3-en-5-yl)-6-fluoropyridin-3-yl)-5-(difluoromethyl)-3-methylpicolinamide]
12 | 447 | 0.0405 | 0.142 | COc1cnc(C(=O)Nc2cc(C)c(F)c([C@@]3(C(F)F)N=C(N)O[C@@H]4C[C@@H]43)c2)c(C)n1 [Example 300, N-(3-((1R,5S,6R)-3-amino-5-(difluoromethyl)-2-oxa-4-azabicyclo[4.1.0]hept-3-en-5-yl)-4-fluoro-5-methylphenyl)-5-methoxy-3-methylpyrazine-2-carboxamide]
13 | 752 | 0.0149 | 0.122 | COc1cnc(C(=O)Nc2ccc(Cl)c([C@@]3(CF)N=C(N)O[C@@H]4C[C@@H]43)c2)c(Cl)c1 [Example 284, N-(3-((1R,5S,6R)-3-amino-5-(fluoromethyl)-2-oxa-4-azabicyclo[4.1.0]hept-3-en-5-yl)-4-chlorophenyl)-3-chloro-5-methoxypicolinamide]
14 | 960 | 6.28 | 5.38 | NC1=N[C@@](c2cc(NC(=O)c3c(F)cc(F)cc3F)ccc2F)(C(F)F)[C@H]2C[C@H]2O1 [Example 451, N-(3-((1R,5S,6R)-3-amino-5-(difluoromethyl)-2-oxa-4-azabicyclo[4.1.0]hept-3-en-5-yl)-4-fluorophenyl)-2,4,6-trifluorobenzamide]
15 | 1080 | > 15.6 | > 40 | Cc1nc(OCC(F)(F)F)cnc1C(=O)Nc1cc(F)c(Cl)c([C@]2(CF)N=C(N)O[C@H]3C[C@H]32)c1 [Example 316, N-(3-((1S,5R,6S)-3-amino-5-(fluoromethyl)-2-oxa-4-azabicyclo[4.1.0]hept-3-en-5-yl)-4-chloro-5-fluorophenyl)-3-methyl-5-(2,2,2-trifluoroethoxy)pyrazine-2-carboxamide]
16 | 526 | 0.176 | 0.295 | CC#CCOc1cnc(C(=O)Nc2cc(F)c(F)c(C3(CF)N=C(N)O[C@H]4C[C@H]43)c2)cn1 (stereo in doubt) [Example 36, N-(3-((1S,5S,6S)-3-amino-5-(fluoromethyl)-2-oxa-4-azabicyclo[4.1.0]hept-3-en-5-yl)-4,5-difluorophenyl)-5-(but-2-yn-1-yloxy)pyrazine-2-carboxamide]
17 | 1050 | 0.466 | 0.226 | Cc1nc(OCC(F)(F)F)cnc1C(=O)Nc1cc(F)c(Cl)c([C@]2(CF)N=C(N)O[C@H]3C[C@H]32)c1 (racemic) [Example 159, N-(3-([1(S,R),5(R,S),6(S,R)]-3-amino-5-(fluoromethyl)-2-oxa-4-azabicyclo[4.1.0]hept-3-en-5-yl)-4-chloro-5-fluorophenyl)-3-methyl-5-(2,2,2-trifluoroethoxy)pyrazine-2-carboxamide]
18 | 897 | 0.0199 | 0.055 | COc1cnc(C(=O)Nc2cc(F)c(Cl)c([C@@]3(CF)N=C(N)O[C@@H]4C[C@@H]43)c2)cn1 [Example 156, N-(3-((1R,5S,6R)-3-amino-5-(fluoromethyl)-2-oxa-4-azabicyclo[4.1.0]hept-3-en-5-yl)-4-chloro-5-fluorophenyl)-5-methoxypyrazine-2-carboxamide]
19 | 700 | 0.116 | 0.305 | CC(C)c1cc(Cl)cnc1C(=O)Nc1ccc(F)c([C@@]2(C(F)F)N=C(N)O[C@@H]3C[C@@H]32)c1 [Example 289, N-(3-((1R,5S,6R)-3-amino-5-(difluoromethyl)-2-oxa-4-azabicyclo[4.1.0]hept-3-en-5-yl)-4-fluorophenyl)-5-chloro-3-isopropylpicolinamide]
20 | 1820 | 0.0085 | 0.0251 | COCc1cc(C#N)cnc1C(=O)Nc1ccc(Cl)c([C@@]2(CF)N=C(N)O[C@@H]3C[C@@H]32)c1 [Example 386, N-(3-((1R,5S,6R)-3-amino-5-(fluoromethyl)-2-oxa-4-azabicyclo[4.1.0]hept-3-en-5-yl)-4-chlorophenyl)-5-cyano-3-(methoxymethyl)picolinamide]
21 | 1810 | 0.0188 | 0.126 | NC1=N[C@](CF)(c2cc(NC(=O)c3ccc(Br)cn3)cnc2F)[C@H]2C[C@H]2O1 [Example 235, N-(5-((1R,5S,6R)-3-amino-5-(fluoromethyl)-2-oxa-4-azabicyclo[4.1.0]hept-3-en-5-yl)-6-fluoropyridin-3-yl)-5-bromopicolinamide]
22 | 164 | 0.0135 | 0.0323 | Cc1cc(OC(F)F)cnc1C(=O)Nc1cc(Cl)c(F)c([C@@]2(CF)N=C(N)O[C@@H]3C[C@@H]32)c1 [Example 87, N-(3-((1R,5S,6R)-3-amino-5-(fluoromethyl)-2-oxa-4-azabicyclo[4.1.0]hept-3-en-5-yl)-5-chloro-4-fluorophenyl)-5-(difluoromethoxy)-3-methylpicolinamide]
23 | 1660 | 0.601 | 0.271 | Cc1cccnc1C(=O)Nc1ccc(F)c([C@@]2(C(F)F)N=C(N)O[C@@H]3C[C@@H]32)c1 [Example 293]

Row | Compound | IC50 (Cathepsin D (Cat D)) [µM] | IC50 (BACE) [µM] | IC50 [1] [µM]
24 | NC1=N[C@@](c2cc(NC(=O)c3ccc(C#CC4CC4)cn3)ccc2F)(C(F)F)[C@H]2C[C@H]2O1 [Example 405, N-(3-((1R,5S,6R)-3-amino-5-(difluoromethyl)-2-oxa-4-azabicyclo[4.1.0]hept-3-en-5-yl)-4-fluorophenyl)-5-(cyclopropylethynyl)picolinamide] | 399 | 0.215 | 0.0237

Source: US9085576B2 (AMGEN INC., priority 2013, dated 2015)
